Experimental data: PubChem BioAssay (NCI)
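Values below derive from 48-hour exposures of cells grown in 96-well plates, with endpoints linearly interpolated between the two concentrations bracketing the appropriate inhibition level. GI50 marks 50% less growth. At the TGI there is no net growth.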

Assays:
Assay in all cases: inhibition of tumour cell growth, NCI panel, 48 h; in the data active = GI50 below about 0.43 µM; inactive = the rest
SF-539 CNS = tested on: SF-539 CNS
MDA-MB-231 breast = tested on: MDA-MB-231 breast
A549 NSCLC = tested on: A549 NSCLC
MDA-MB-435 = tested on: MDA-MB-435
OVCAR-5 ovarian = tested on: OVCAR-5 ovarian
RPMI-8226 leukemia = tested on: RPMI-8226 leukemia
LOX IMVI melanoma = tested on: LOX IMVI melanoma
ACHN renal = tested on: ACHN renal
NCI/ADR-RES ovarian = tested on: NCI/ADR-RES ovarian
NCI-H23 lung = tested on: NCI-H23 lung
OVCAR-8 ovarian = tested on: OVCAR-8 ovarian
SN12C renal = tested on: SN12C renal
NCI-H460 lung = tested on: NCI-H460 lung
NCI-H522 lung = tested on: NCI-H522 lung
K-562 leukemia = tested on: K-562 leukemia
T-47D breast = tested on: T-47D breast
TK-10 renal = tested on: TK-10 renal
PC-3 prostate = tested on: PC-3 prostate
SNB-75 CNS = tested on: SNB-75 CNS
HCT-116 colon = tested on: HCT-116 colon
CCRF-CEM leukemia = tested on: CCRF-CEM leukemia
OVCAR-4 ovarian = tested on: OVCAR-4 ovarian
SK-MEL-28 melanoma = tested on: SK-MEL-28 melanoma
786-0 renal = tested on: 786-0 renal
SNB-19 CNS = tested on: SNB-19 CNS
UO-31 renal = tested on: UO-31 renal
RXF 393 renal = tested on: RXF 393 renal
MALME-3M melanoma = tested on: MALME-3M melanoma
COLO 205 colon = tested on: COLO 205 colon
M14 melanoma = tested on: M14 melanoma
SK-MEL-2 melanoma = tested on: SK-MEL-2 melanoma
IGROV1 ovarian = tested on: IGROV1 ovarian
KM12 colon = tested on: KM12 colon
HOP-92 NSCLC = tested on: HOP-92 NSCLC
SF-295 CNS = tested on: SF-295 CNS
MOLT-4 leukemia = tested on: MOLT-4 leukemia
MCF7 breast = tested on: MCF7 breast
UACC-62 melanoma = tested on: UACC-62 melanoma
HCT-15 colon = tested on: HCT-15 colon
UACC-257 melanoma = tested on: UACC-257 melanoma
OVCAR-3 ovarian = tested on: OVCAR-3 ovarian
HT29 colon = tested on: HT29 colon
HS 578T breast = tested on: HS 578T breast
BT-549 breast = tested on: BT-549 breast
HL-60(TB) leukemia = tested on: HL-60(TB) leukemia
SW-620 colon = tested on: SW-620 colon
HCC-2998 colon = tested on: HCC-2998 colon
SR leukemia = tested on: SR leukemia
SK-OV-3 ovarian = tested on: SK-OV-3 ovarian
SF-268 CNS = tested on: SF-268 CNS
U251 CNS = tested on: U251 CNS
HOP-62 NSCLC = tested on: HOP-62 NSCLC
EKVX NSCLC = tested on: EKVX NSCLC
SK-MEL-5 melanoma = tested on: SK-MEL-5 melanoma
A498 renal = tested on: A498 renal

C[C@@H]1CCC/C=C/[C@H]2C[C@@H](O)C[C@@H]2[C@@H](O)/C=C/C(=O)O1
3420 nM: TGI (KM12 colon)
131 nM: TGI (COLO 205 colon)
171 nM: TGI (MDA-MB-231 breast)
1280 nM: TGI (HOP-92 NSCLC)
166 nM: TGI (A498 renal)
> 33300 nM: TGI (SF-539 CNS) | TGI (A549 NSCLC) | TGI (MDA-MB-435) | TGI (OVCAR-5 ovarian) | TGI (NCI/ADR-RES ovarian) | TGI (NCI-H23 lung) | TGI (OVCAR-8 ovarian) | TGI (SN12C renal) | TGI (NCI-H460 lung) | TGI (K-562 leukemia) | TGI (PC-3 prostate) | TGI (SNB-75 CNS) | TGI (HCT-116 colon) | TGI (CCRF-CEM leukemia) | TGI (OVCAR-4 ovarian) | TGI (786-0 renal) | TGI (SNB-19 CNS) | TGI (UO-31 renal) | TGI (M14 melanoma) | TGI (IGROV1 ovarian) | TGI (SF-295 CNS) | TGI (MOLT-4 leukemia) | TGI (MCF7 breast) | TGI (UACC-62 melanoma) | TGI (HCT-15 colon) | TGI (UACC-257 melanoma) | TGI (HS 578T breast) | TGI (BT-549 breast) | TGI (HCC-2998 colon) | TGI (SR leukemia) | TGI (SK-OV-3 ovarian) | TGI (SF-268 CNS) | TGI (U251 CNS) | TGI (HOP-62 NSCLC) | TGI (EKVX NSCLC)
401 nM: TGI (OVCAR-3 ovarian)
109 nM: TGI (SK-MEL-5 melanoma)
5160 nM: TGI (ACHN renal)
961 nM: TGI (TK-10 renal)
236 nM: TGI (SK-MEL-2 melanoma)
1170 nM: TGI (MALME-3M melanoma)
316 nM: TGI (HT29 colon)
258 nM: TGI (RXF 393 renal)
374 nM: TGI (HL-60(TB) leukemia)
155 nM: TGI (LOX IMVI melanoma)
327 nM: TGI (SW-620 colon)
12000 nM: TGI (SK-MEL-28 melanoma)
1360 nM: TGI (T-47D breast)
225 nM: TGI (NCI-H522 lung)
553 nM: TGI (RPMI-8226 leukemia)
active: GI50 (SF-539 CNS) 149 nM | GI50 (MDA-MB-231 breast) 69.7 nM | GI50 (A549 NSCLC) 127 nM | GI50 (MDA-MB-435) 136 nM | GI50 (OVCAR-5 ovarian) 136 nM | GI50 (RPMI-8226 leukemia) 104 nM | GI50 (LOX IMVI melanoma) 67.7 nM | GI50 (ACHN renal) 113 nM | GI50 (NCI/ADR-RES ovarian) 104 nM | GI50 (NCI-H23 lung) 129 nM | GI50 (OVCAR-8 ovarian) 91.4 nM | GI50 (SN12C renal) 114 nM | GI50 (NCI-H460 lung) 115 nM | GI50 (NCI-H522 lung) 75.6 nM | GI50 (K-562 leukemia) 141 nM | GI50 (T-47D breast) 109 nM | GI50 (TK-10 renal) 114 nM | GI50 (PC-3 prostate) 125 nM | GI50 (SNB-75 CNS) 23 nM | GI50 (HCT-116 colon) 99.5 nM | GI50 (CCRF-CEM leukemia) 130 nM | GI50 (OVCAR-4 ovarian) 109 nM | GI50 (SK-MEL-28 melanoma) 40 nM | GI50 (786-0 renal) 95.1 nM | GI50 (SNB-19 CNS) 167 nM | GI50 (UO-31 renal) 116 nM | GI50 (RXF 393 renal) 49.8 nM | GI50 (MALME-3M melanoma) 86.8 nM | GI50 (COLO 205 colon) 63 nM | GI50 (M14 melanoma) 93.2 nM | GI50 (SK-MEL-2 melanoma) 92 nM | GI50 (IGROV1 ovarian) 145 nM | GI50 (KM12 colon) 84.5 nM | GI50 (HOP-92 NSCLC) 89.2 nM | GI50 (SF-295 CNS) 140 nM | GI50 (MOLT-4 leukemia) 146 nM | GI50 (MCF7 breast) 96.6 nM | GI50 (UACC-62 melanoma) 138 nM | GI50 (HCT-15 colon) 112 nM | GI50 (UACC-257 melanoma) 110 nM | GI50 (OVCAR-3 ovarian) 111 nM | GI50 (HT29 colon) 96.1 nM | GI50 (HS 578T breast) 21.1 nM | GI50 (BT-549 breast) 140 nM | GI50 (HL-60(TB) leukemia) 97.3 nM | GI50 (SW-620 colon) 101 nM | GI50 (HCC-2998 colon) 139 nM | GI50 (SR leukemia) 111 nM | GI50 (SK-OV-3 ovarian) 144 nM | GI50 (SF-268 CNS) 102 nM | GI50 (U251 CNS) 137 nM | GI50 (HOP-62 NSCLC) 145 nM | GI50 (EKVX NSCLC) 108 nM | GI50 (SK-MEL-5 melanoma) 54.7 nM | GI50 (A498 renal) 59.5 nM
